According to patent US5457106A, “Pyridine derivatives, their production and use” (Takeda Chemical Industries, Ltd., priority 1991, dated 1995):
Counter-ions that a name gives are not always drawn.

Experiments:
cyclooxygenase = biological target: T1, cyclooxygenase (Rattus norvegicus, UniProt Q63921); experiment: Cyclooxygenase inhibitory activity (HHT formation from arachidonic acid in rat platelet-rich plasma); format: cell-based, rat (Jcl:wistar)
T1 construct: from tissue; host or cells: platelets in platelet-rich plasma from rat abdominal aorta blood (Jcl:wistar, male)
T1 sequence (Q63921 27-602): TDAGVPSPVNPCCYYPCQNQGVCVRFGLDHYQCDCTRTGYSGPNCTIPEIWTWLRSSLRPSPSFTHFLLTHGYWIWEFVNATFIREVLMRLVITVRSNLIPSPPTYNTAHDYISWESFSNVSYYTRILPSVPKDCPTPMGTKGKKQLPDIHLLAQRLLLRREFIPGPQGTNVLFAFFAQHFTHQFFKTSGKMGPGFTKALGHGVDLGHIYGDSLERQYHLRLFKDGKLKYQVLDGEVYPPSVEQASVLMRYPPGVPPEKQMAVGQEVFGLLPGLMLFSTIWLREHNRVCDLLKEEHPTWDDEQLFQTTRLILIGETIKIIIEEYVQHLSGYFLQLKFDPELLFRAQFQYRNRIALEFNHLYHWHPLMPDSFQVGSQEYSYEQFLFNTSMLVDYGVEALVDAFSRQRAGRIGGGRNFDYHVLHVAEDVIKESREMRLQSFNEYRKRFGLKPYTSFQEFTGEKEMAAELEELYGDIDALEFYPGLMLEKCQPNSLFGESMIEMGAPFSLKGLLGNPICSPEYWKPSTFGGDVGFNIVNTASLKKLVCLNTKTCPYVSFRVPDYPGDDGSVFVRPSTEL

[1] = test system: Rat carrageenin pedal edema; experiment: Rat carrageenin pedal edema inhibitory activity; format: in vivo, rat (Jcl: SD); settings: 50 mg/kg, orally, 3 hours after carrageenin; for inhibition in vivo at 50 mg/kg: Rattus norvegicus, po, 3 h, read-out: Inhibitory percentage (carrageenin pedal edema)
Procedure: Rat Carrageenin Pedal Edema Inhibitory Activity A Jcl: SD male rat (6 weeks old, weight 160-220 g) was used. After the mesurement of the volume of the dexter hind limb foot pad, a test compound suspended in 5% gum arabic solution was administered orally. Immediately after the administration, water was further administered orally so that the total administration volume of liquid became 5 ml/rat. After one hour, 0.05 ml of 1% carrageenin suspension in physiological saline was injected subcutaneously in the foot pad to induce edema [Winter, […]. and Nuss, G. W.: Proc. Soc. exp. […] Three hours after injection of carrageenin, the volume of the dexter limb was measured, and the edema volume was calculated by the difference between the volume after injection and the volume prior to injection.

[2] = test system: brewer's yeast induced pyrexia; experiment: Antipyretic activity (brewer's yeast induced pyrexia); format: in vivo, rat (DS line); settings: 50 mg/kg, orally; for Antipyretic activity, .increment. °C.: at peak time
Procedure: Antipyretic Activity Six male DS line rats, 7 weeks old, weighing 200 to 240 g (Nihon Clea) per one group were used. According to the method of Winder et al. (J. Pharmac. Exp. Ther. 138: 405 (1963)), a suspension of 15% brewer's yeast (Sigma) in physiological saline (1 ml/100 g, b.w.) was injected subcutaneously at 16 hours before measurement of the body temperature to induce pyrexia. After injection of yeast, only water was provided, and each rat was bred separately in a five duplicate cage. At 16, 17 and 18 hours after yeast injection, the rectal temperature was measured by a thermistor thermometer (Takara Kogyo K.K.), and this was taken as the basal body temperature. […] Animals having the body temperature of not lower than 38.5° C. at 18 hours after yeast injection were selected, and a test compound was administered orally (1 ml/100 g, b.w.). As a control, only the solvent was provided. Upon administration, the body temperature of the control group and that of the test compound-administered group were adjusted to the same temperature. The rectal temperature was measured every hour till five hours after administration.

[3] = test system: Mouse phenylquinone writhing; experiment: Mouse phenylquinone writhing inhibitory activity; format: in vivo, mouse (Slc: ICR); settings: 50 mg/kg, orally; for inhibition in vivo at 50 mg/kg: Mus musculus, po, 20 min, read-out: Inhibitory percentage (phenylquinone writhing)
Procedure: Mouse Phenylquinone Writhing Inhibitory Activity A Slc: ICR male mouse (4 weeks, weight 17 to 24 g) was used. A test compound suspended in 5% gum arabic solution was administered orally. After 30 minutes, 0.1 ml/10 g body weight of 0.02% phenylquinone solution in water (dissolved by the aid of 5% ethanol) was injected intraperitoneally, and writhing and stretching responses of individual animals were measured for 20 minutes [Siegmund, E., Cadmus, R. and Lu, G.; Proc. Soc. exp. Biol. Med. 95, (1957)].

[4] = test system: ART (antigen-responding T-cell); experiment: In vitro ART (antigen-responding T-cell) proliferation test; format: cell-based, Lewis rat; settings: for inhibition at 1 µM / inhibition at 10 µM: Rattus norvegicus, T-cell, read-out: % Inhibition of ART growth

In the case of O=C(/C=C/c1ccccc1)NCCCSc1ccncc1 [Example 28, 4-[3-(cinnamoylamino)propylthio]pyridine hydrochloride], the IC50 (cyclooxygenase) is reported as 5.6 µM and the inhibition in vivo at 50 mg/kg [1] is reported as 25%.

O=C1c2ccccc2CN1CCCCOc1ccncc1 [Example 156, 4-[4-(isoindolin-1-on-2-yl)butyloxy]pyridine] gave an IC50 (cyclooxygenase) of 2.9 µM and an inhibition in vivo at 50 mg/kg [1] of 32%.

In the case of O=C1c2ccccc2C(=O)N1CCCCOc1ccncc1 [Example 84, 4-(4-phthalimidobutyloxy)pyridine], the IC50 (cyclooxygenase) is reported as 4.5 µM, the “Antipyretic activity, peak time” value [2] is reported as 3 h and the “Antipyretic activity, .increment. °C.” value [2] is reported as -0.97 °C. The inhibition in vivo at 50 mg/kg [3] was 84%.

For CC(C)(CSc1ccncc1)CN1C(=O)c2ccccc2C1=O [Example 145, 4-(2,2-dimethyl-3-phthalimidopropylthio)pyridine], the inhibition at 1 µM ([4]; 1 μM) was 17%, the inhibition at 10 µM ([4]; 10 μM) was -42% and the inhibition in vivo at 50 mg/kg [1] was 22%.

For CC(=O)N(CCCSc1ccncc1)Cc1ccccc1.Cl [Example 76, 4-[3-(N-benzyl-N-acetylamino)propylthio]pyridine hydrochloride], the IC50 (cyclooxygenase) was 13 µM, the “% Inhibition of ART growth” value ([4]; 1 μM) was 3% and the “% Inhibition of ART growth” value ([4]; 10 μM) was 38%. For the same molecule, the “Inhibitory percentage (phenylquinone writhing)” value [3] was 61%.

O=C1c2ccccc2C(O)N1CSc1ccncc1 (stereo not drawn) [Example 97, 4-(3-hydroxyisoindolin-1-on-2-ylmethylthio)pyridine] was tested, and the inhibition at 1 µM ([4]; 1 μM) was 30%, the inhibition at 10 µM ([4]; 10 μM) was 31% and the inhibition in vivo at 50 mg/kg [1] was 29%.

O=C1c2ccccc2C(O)N1CCCSc1ccncc1 (stereo not drawn) [Example 110, 4-[3-(3-hydroxyisoindolin-1-on-2-yl)propylthio]pyridine] was tested, and the IC50 (cyclooxygenase) was 11 µM, the inhibition at 1 µM ([4]; 1 μM) was -21% and the inhibition at 10 µM ([4]; 10 μM) was 1%. It also gave an inhibition in vivo at 50 mg/kg [1] of 44%.

O=C1c2ccccc2C(O)N1CCSc1ccncc1 (stereo not drawn) [Example 104, 4-[2-(3-hydroxyisoindolin-1-on-2-yl)ethylthio]pyridine] gave an IC50 (cyclooxygenase) of 7.7 µM and an inhibition in vivo at 50 mg/kg [1] of 21%.

With O=C(NCCCSc1ccncc1)c1ccccc1 [Example 40, 4-[3-(benzoylamino)propylthio]pyridine] the IC50 (cyclooxygenase) was 7.6 µM, the “Antipyretic activity, peak time” value [2] was 3 h and the “Antipyretic activity, .increment. °C.” value [2] was -2.00 °C. The inhibition in vivo at 50 mg/kg [3] was 45%.

O=C1CCC(=O)N1CCCCSc1ccncc1 [Example 143, 4-(4-succinimidobutylthio)pyridine] gave an inhibition in vivo at 50 mg/kg [1] of 27%.

For O=C1c2ccccc2C(=O)N1CSc1ccccn1 [Example 64, 2-(phthalimidomethylthio)pyridine], the “Antipyretic activity, peak time” value [2] was 3 h, the “Antipyretic activity, .increment. °C.” value [2] was -2.58 °C and the inhibition in vivo at 50 mg/kg [3] was 56%.

Work on Cl.O=C(c1ccccc1)N(CCCSc1ccncc1)Cc1cccs1 [Example 93, 4-[3-(N-(2-thienylmethyl)benzoylamino)propylthio]pyridine hydrochloride] yielded an IC50 (cyclooxygenase) of 6.3 µM, an inhibition at 1 µM ([4]; 1 μM) of 42% and an inhibition at 10 µM ([4]; 10 μM) of 11%. For the same molecule, the “Inhibitory percentage (phenylquinone writhing)” value [3] was 41%.

Work on O=C(NCCCCSc1ccncc1)c1cccs1 [Example 129, 4-[4-(2-thenonylamino)butylthio]pyridine] yielded an IC50 (cyclooxygenase) of 2.5 µM and an inhibition in vivo at 50 mg/kg [1] of 34%.

In the case of O=C(c1cccs1)N1CCC(Sc2ccncc2)CC1 [Example 132], the inhibition in vivo at 50 mg/kg [1] is reported as 45%.

O=C1SC(=Cc2ccccc2)C(=O)N1CSc1ccncc1 [Example 159, 4-(5-benzylidene-2,4-thiazolidinedione)methylthiopyridine] gave an inhibition in vivo at 50 mg/kg [1] of 25%.

Molecule O=C(NCCCOc1ccncc1)c1ccccc1CO [Example 100, 4-[3-(2-hydroxymethylbenzoyl)aminopropyloxy]pyridine] has an IC50 (cyclooxygenase) of 8 µM, an inhibition at 1 µM ([4]; 1 μM) of 19% and an inhibition at 10 µM ([4]; 10 μM) of 32%. It also gave an inhibition in vivo at 50 mg/kg [1] of 22%.

In the case of O=C(NCSc1ccncc1)c1cccnc1 [Example 138, 4-(3-picolinoylaminomethylthio)pyridine], the inhibition in vivo at 50 mg/kg [1] is reported as 25%.

In the case of O=C(NCCCOc1ccncc1)c1cc2ccccc2s1 [Example 85, 4-[3-(thianaphtene-2-carbonylamino)propyloxy]pyridine], the IC50 (cyclooxygenase) is reported as 1.4 µM, the “Antipyretic activity, peak time” value [2] is reported as 2 h and the “Antipyretic activity, .increment. °C.” value [2] is reported as -1.00 °C. It also gave an inhibition in vivo at 50 mg/kg [3] of 70%.

O=C(NCCCSc1ccncc1)c1ccc(-c2ccccc2)cc1 [Example 26, 4-[3-(4-phenylbenzoylamino)propylthio]pyridine hydrochloride] showed an IC50 (cyclooxygenase) of 3.5 µM and an inhibition in vivo at 50 mg/kg [3] of 67%.

O=C(NCCCOc1ccncc1)c1cccs1 [Example 89, 4-[3-(2-thenoylamino)propyloxy]pyridine] was tested, and the “Antipyretic activity, peak time” value [2] was 3 h, the “Antipyretic activity, .increment. °C.” value [2] was -2.72 °C and the inhibition in vivo at 50 mg/kg [3] was 62%.

O=C1CSC(=S)N1CCCCSc1ccncc1 [Example 163, 4-(4-rhodaninebutylthio)pyridine] gave an inhibition at 10 µM ([4]; 10 μM) of 99% and an inhibition in vivo at 50 mg/kg [1] of 29%.

With O=C(c1ccccc1)N(CCCSc1ccncc1)Cc1ccccn1 [Example 81, 4-[3-(N-2-pyridylmethyl-N-benzoylamino)propylthio]pyridine] the IC50 (cyclooxygenase) was 6.8 µM and the “Inhibitory percentage (phenylquinone writhing)” value [3] was 75%.

With O=C(c1ccccc1)N(CCOc1ccncc1)Cc1ccccc1 [Example 118, 4-[2-(N-benzyl-N-benzoyl)aminoethyloxy]pyridine hydrochloride] the “% Inhibition of ART growth” value ([4]; 1 μM, hydrochloride) was 8%, the “% Inhibition of ART growth” value ([4]; 10 μM, hydrochloride) was 38% and the inhibition in vivo at 50 mg/kg [1] was 31%.

CN(CCCSc1ccncc1)C(=O)c1cccs1 [Example 51, 4-[3-(N-methyl-2-thenoylamino)propylthio]pyridine] showed an IC50 (cyclooxygenase) of 8.9 µM and an inhibition in vivo at 50 mg/kg [3] of 72%.

For O=C(NCCCCSc1ccncc1)c1ccccc1 [Example 127, 4-[4-(benzoylamino)butylthio]pyridine], the inhibition in vivo at 50 mg/kg [1] was 32%.

O=C(NCCCSc1ccncc1)c1ccc(Cl)cc1 [Example 29, 4-[3-(4-chlorobenzoylamino)propylthio]pyridine hydrochloride] gave an inhibition in vivo at 50 mg/kg [1] of 25%.

In the case of “4-(4-isobutyrylpiperidylthio)pyridine [Example 136]”, the “Inhibitory percentage (carrageenin pedal edema)” value [1] is reported as 33%.

In the case of Cc1ccc(C(=O)NCCCSc2ccncc2)cc1 [Example 31, 4-[3-(4-methylbenzoylamino)propylthio]pyridine], the IC50 (cyclooxygenase) is reported as 4.6 µM and the inhibition in vivo at 50 mg/kg [1] is reported as 32%.

With O=C1c2ccccc2CN1CCCSc1ccncc1 [Example 111, 4-[3-(isoindolin-1-on-2-yl)propylthio]pyridine] the IC50 (cyclooxygenase) was 7 µM, the inhibition at 1 µM ([4]; 1 μM) was 30% and the inhibition at 10 µM ([4]; 10 μM) was -12%. For the same molecule, the “Antipyretic activity, peak time” value [2] was 2 h, the “Antipyretic activity, .increment. °C.” value [2] was -0.68 °C and the inhibition in vivo at 50 mg/kg [3] was 64%.

For O=C1c2ccccc2C(=O)N1CCCOc1ccncc1 [Example 83, 4-(3-phthalimidopropyloxy)pyridine], the IC50 (cyclooxygenase) was 10 µM, the “Antipyretic activity, peak time” value [2] was 2 h and the “Antipyretic activity, .increment. °C.” value [2] was -0.82 °C. For the same molecule, the inhibition in vivo at 50 mg/kg [3] was 59%.

For CC(C)(C)C(=O)Nc1ncccc1CCN1C(=O)c2ccccc2C1=O.Cl [Example 71, 3-[2-(phthalimido)ethyl]-2-(pivaloylamino)pyridine hydrochloride], the “Antipyretic activity, peak time” value [2] was 2 h, the “Antipyretic activity, .increment. °C.” value [2] was -0.52 °C and the inhibition in vivo at 50 mg/kg [3] was 55%.
